# Test results: patent US11839658B2, “Aminoglycoside derivatives and nano-assemblies thereof, including those with quorum sensing inhibitory function” (priority 2017, dated 2023)
# What was measured:
# [1] = Dynamic light scattering (DLS): zeta-potential, mean diameter, PDI of nano-assemblies; format: physicochemical
# [2] = system: Pyocyanin released from PA14 bacteria (wild type); experiment: Pyocyanin assay on Pseudomonas aeruginosa; format: cell-based; conditions: 18 μg/mL Farnesal or Farnesol, 16 h, n=9
# Protocol: Pyocyanin assay was used to quantify the amount of Pyocyanin molecule released from PA14 bacteria (wild type) which were grown aerobically for 16 hours. The Pyocyanin assay was performed as follows:
# A single colony of PA14 was removed from agar plates after 16 hours of growth at 37° C. and transferred into 25 mL Erlenmeyer flasks with 10 mL of PPGAS (proteose peptone glucose ammonium salt medium which is composed of (1 g/L NH4Cl, 1.5 g/L KCl, 19 g/L Tris-HCl, 10 g/L peptone, glucose 5 g/L and 0.1 g/L MgSO4·7H2O, the medium was adjusted to pH 7.4, and sterilized before use). Following 16 hours of aerobic growth with shaking at 200 rpm and 37° C., cultures were centrifuged at 7.450 g, washed twice with 10 mL of fresh PPGAS medium, and resuspended to a final volume of 5 mL solution. Cultures were then diluted to a final OD600 of 0.02 and distributed into 24 well-plates, 1.5 mL each well.
# Compounds Farnesal and Farnesol were diluted in DMSO, then added to wells containing PA14 bacteria, in 1:100 dilutions with a final DMSO concentration of 1% (v/v), so that the final concentration of Farnesal was 18 μg/mL, and of Farnesol was 18 μg/mL. […]
# All cultures were incubated for an additional 16 h under aerobic conditions as mentioned above. […] OD520 was measured in the aqueous phase. […]
# E. coli = conditions: literature value; cited from earlier work
# [3] = system: P. aeruginosa strain PA14 (wild type); experiment: MIC assay against Pseudomonas aeruginosa; format: cell-based; conditions: PA14, read-out: MIC-90 against PA14
# Protocol: The minimum inhibitory concentration (MIC) of the of the tobramycin containing nano-assemblies of example 2 against the P. aeruginosa strain PA14 (wild type) was tested and compared to known MIC values of tobramycin.
# [4] = system: 24 hours old PA14 biofilm; experiment: Minimum Biofilm Eradicating Concentration (MBEC) assay; format: cell-based, Pseudomonas aeruginosa; conditions: 24 h old PA14 biofilm treated 24 hours
# Protocol: Minimum Biofilm Eradicating Concentration (MBEC) assay was used to determine the minimum concentration of active agents at which a 24 hours old PA14 biofilm is completely eradicated. The MBEC assay was performed as follows: […]
# The 96 well-plates were then kept at 37° C. without shaking for 24 hours to allow the forming of biofilm. Afterwards, the planktonic bacteria were removed, and the 24 hours old biofilm was washed twice with PBS, then fed with fresh PPGAS medium, and ready for the assay. […]
# All cultures were incubated for an additional 24 hours at 37° C. without shaking. […] All cultures were then measured OD650, and the biofilm is considered to be completely eradicated once the resulting OD650 is equal or lower than OD650 of PPGAS medium.
SMILES,zeta-potential [1],percentage inhibition of released Pyocyanin vs PA14 wt control [2],MIC-90 against E. coli (Dienstag and Neu) (E. coli),MIC90 [3],Tobramycin concentration needed for complete biofilm eradication (MBEC) [4]
CC(C)=CCCC(C)=CCCC(C)=CC=O [Farnesal],−33.8±0.5 mV,5.85±3.10%,,,
CC(C)=CCCC(C)=CCCC(C)=CCO [Farnesol],,12.29±7.35%,,,
NC[C@H]1O[C@H](O[C@H]2[C@H](O)[C@@H](O[C@H]3O[C@H](CO)[C@@H](O)[C@H](N)[C@H]3O)[C@H](N)C[C@@H]2N)[C@H](N)C[C@@H]1O [Tobramycin],,,6.25 µg/mL,6.25 to 12.5 µg/mL,≥ 100 µg/mL
